# In patent publication EP3037106A1, “TXA2 inhibitor as stimulator or inducer of MHC Class I cross-presentation” (INSTITUT PASTEUR, priority 2014, dated 2016):
# “Also recorded” adds a separate entry of the source.
# How the values were obtained:
# [1] = system: bone marrow derived macrophages (BMMs); assay: FRET assay for antigen cytosolic transfer (CCF4-AM/β-lactamase) in bone marrow derived macrophages; assay type: cell-based, C57/black-6 mice; details: for reversal of inhibitor-induced antigen transfer to the cytosol (complementation): after indomethacin 1mM or AACOCF3 0.25mM, diMePGE2 or U46619 10µM added with β-lactamase for 90 minutes at 37°C; for transfer of β-lactamase to the cytosol (450/535 nm ratio, CCF4 cleavage): compound 15 minutes at 37°C (AACOCF3 0.25mM, baïcalein 1mM, indomethacin 1mM, sulindac sulphide 1mM, ICI192605 1mM, arachidonic acid 80µM), then 1 mg/ml β-lactamase 90 minutes at 37°C; for effect on indomethacin induced transfer of β-lactamase to the cytosol: indomethacin 1mM 15 minutes, then β-lactamase with wortmannin 0.5µM, radicicol 25µM or Pyr41 10µM for 90 minutes at 37°C
# Procedure: Primary Cells and Mice - Bone marrow derived dendritic cells and macrophages were isolated by flushing femur and tibia from 6 to 9 weeks old C57/black-6 mice with ROSWELL PARK MEMORIAL INSTITUTE-1640 (RPMI-1640) supplemented with GLUTAMAX using 5 ml syringes (BD PLASTIPAK) and 0.5 x 16 mm needles 25G 5/8 (BD MicroLance). After centrifugation at 1000 rpm for 4 minutes, cells were resuspended in 1.66% NH4Cl, and put at 4°C for 10 minutes. After centrifugation at 1,000 rpm for 4 minutes, cells were quantified and incubated at 37°C/5% CO2 for 7 to 10 days in RPMI-1640 with GLUTAMAX containing 10% v/v fetal calf serum (GIBCO) and 50µg/ml penicillin/streptomycin (GIBCO). Granulocytes and macrophages-colony stimulating factor (GM-CSF, MILTENIY BIOTEC) and macrophages-colony stimulating factor (M-CSF, PREPROTECH) were added at day 0 at a concentration of 50 ng/ml in order to allow dendritic cells or macrophages differentiation. Dendritic cells were replated every 3 days adding each time fresh GM-CSF. Macrophages were supplemented with fresh M-CSF at day 4 and replated at day 7 with M-CSF at 25ng/ml. Plasmacytoïd and conventional dendritic cells were isolated from C57/black-6 mice spleen using a plasmacytoïd dendritic cell isolation kit (MILTENYI BIOTEC) and a CD8+ dendritic cell isolation kit (MILTENYI BIOTEC). BMDCs, pDCs and cDCs were adhered on 0.01% poly-lysine coated plates in phosphate buffer saline (PBS).
# (§1) FRET assay for antigen cytosolic transfer - 30,000 to 50,000 cells were seeded on 96 well plates and loaded in a mix containing 3.3µM CCF4-AM (INVITROGEN), 1mM probenecid (SIGMA) and 1.5µl solution B (INVITROGEN) in EM buffer (120mM NaCl, 7mM KCI, 1.8mM CaCl2, 0.8mM MgCl2, 5mM glucose and 25mM HEPES at pH 7.3) in a final volume of 30 µl at 37°C. Following 1 mg/ml β-lactamase incubation in EM buffer, cells were washed with 1mM PBS/probenecid and imaged in EM buffer containing 1mM probenecid.
# (§2) Fluorescence microscopy and image analysis - All acquisitions were performed on a NIKON TI WIDEFIELD microscope with a 20X N-Plan Objective. Experiments in triplicates were repeated at least 3 times independently for each condition using 25 pictures per replicate randomly and automatically. Image analysis was performed using custom-designed algorithms as described in Ray et al. 2010 (Cell Microbiol. 12(4): 545-556) and Simeone et al. 2012 (PLoS Pathog. 8(2): e1002507). Briefly, the 450 and 535 nm emission signals were scored automatically for each individual cells on a large set of images using METAMORPH. The quantitative parameters were then exported as an EXCEL file in which the ratio between the intensity of the 450 and 535 nm emission signals were presented as an average of the ratio in the whole cell population. After algorithm processing, mean ratios 450/535 nm from different replicates were obtained and pooled together as an average and the status of cytosolic transfer was assessed. Error bars represent standard deviation.
# HeLa cells = assay: FRET assay for antigen cytosolic transfer (CCF4-AM/β-lactamase) in HeLa cells; assay type: cell-based; details: indomethacin 1mM 15 minutes at 37°C, 1 mg/ml β-lactamase 90 minutes
# [2] = system: bone marrow derived macrophages (BMMs); assay: Cytosolic delivery of fluorescent antigens (Cy3-dextran, Cy3-β-lactamase, Cy3) by widefield microscopy; assay type: cell-based, C57/black-6 mice; details: indomethacin 1mM 15 minutes; for transfer of fluorescent dextran to the cytosol: 10-kDa Cy3-dextran 1 mg/ml for 90 minutes; for transfer of Cy3-labelled β-lactamase to the cytosol: Cy3-Bla 0.2 mg/ml for 90 minutes
# [3] = system: bone marrow derived dendritic cells (BMDCs); assay: B3Z cross-priming experiments (cross-presentation of ovalbumin); assay type: cell-based, C57/black-6 mice; details: 15 minutes indomethacin 1mM or lactacystine 3µM, serial dilutions of ovalbumin 4 hours, B3Z hybridoma cells 1:1 overnight
# Procedure: B3Z cross-priming experiments - 50,000 BMDCs per well were seeded on poly-L-lysine coated 96 well plates. After treatment with DMSO, 3µM lactacystine, or 1mM indomethacin for 15 minutes in RPMI-1640 complemented with 10% v/v fetal calf serum and 50 µg/ml penicillin/streptomycin at 37°C, cells were incubated with serial dilutions (from 3 to 0.0275 mg/ml) of ovalbumin (EUROMEDEX) for 4 hours. Triplicates were performed for each concentration and serial dilutions of the SIINFEKL 257-264 peptide (POLYPEPTIDE GROUP) were used as positive control (dilutions 1/10 starting from 0.1µg/ml). After 3 washes, cells are incubated overnight with 50,000 B3Z hybridoma cells at 37°C, washed once and subjected to the chlorophenol red-D-galactopyranoside (CPRG) detergent mix containing 100mM β-mercaptoethanol, 100mM MgCl2, 0.125% NP40 and 0.15mM CPRG at 37°C for 4 hours. OD 492 as indicator of β-galactosidase (lacZ) activity produced under the control of the interleukin 2 promoter was subsequently measured by plate reader. Data were obtained from 3 independent experiments and plotted by GRAPHPAD PRISM (error bars: standard deviation).
# [4] = system: BV2 macrophages-like cells; assay: FRET assay for antigen cytosolic transfer (CCF4-AM/β-lactamase) in BV2 macrophage like cells; assay type: cell-based, Murine; details: indomethacin 1mM 15 minutes; for indomethacin induced transfer of β-lactamase adsorbed to beads or expressed by E. coli: increasing amount of beads adsorbed or E. coli expressed β-lactamase at 37°C for 90 minutes; for indomethacin induced cytosolic transfer as a function of external β-lactamase concentration: increasing amount of β-lactamase at 37°C for 90 minutes
# Procedure: Cell lines - Murine Raw and BV2 macrophages like cells were cultured in RPMI-1640 with GLUTAMAX (GIBCO) containing 10% v/v fetal calf serum (GIBCO) and 50 µg/ml penicillin/streptomycin (GIBCO). B3Z were cultured in the same medium but supplemented with 1mg/ml G418 (SIGMA) and 0.4 mg/ml hygromycin B (SIGMA). JAWS-II cells were cultured in Iscove's Modified Dulbecco's Media (IMDM) with L-Glutamine and 25mM HEPES containing 10% v/v fetal calf serum (GIBCO), 50 µg/ml penicillin/streptomycin (GIBCO) and 5ng/ml GM-CSF. All cell lines were maintained at 37°C and 5% CO2.
# Preparation of beads and bacteria - E. coli DH5α were used expressing β-lactamase from a pBAD18 plasmid. After PBS washing, bacteria were re-suspended in EM buffer and the MOI was calibrated by measuring the absorbance of the overnight culture at OD 600nm. 3µm polystyrene beads (TEBU-BIO) were washed once before adsorption with β-lactamase at 4°C on a rotating wheel overnight. After PBS washing, beads were re-suspended in PBS buffer.
# as §1, §2
# [5] = at 37°C; cited from earlier work
smiles,measurement,setting,value
"CCCCC(C)(C)[C@H](O)/C=C/[C@H]1[C@H](O)CC(=O)[C@@H]1C/C=C\CCCC(=O)O [dimethylPGE2, dimethyl-prostaglandin E2]",reversal of inhibitor-induced antigen transfer to the cytosol (complementation),[1],did not lead to a reversal of the effect of antigen transfer to the cytoplasm
CCCCC[C@H](O)/C=C/[C@@H]1[C@@H](C/C=C\CCCC(=O)O)[C@H]2CO[C@@H]1C2 [U46619],reversal of inhibitor-induced antigen transfer to the cytosol (complementation),[1],reduced the inhibitor-induced antigen transfer to the cytosol
"COc1ccc2c(c1)c(CC(=O)O)c(C)n2C(=O)c1ccc(Cl)cc1 [indomethacin, 1-(4-chlorobenzoyl)-5-methoxy-2-methyl-1H-indole-3-acetic acid]",transfer of β-lactamase to the cytosol in HeLa cells,HeLa cells,no cytosolic β-lactamase delivery
same,transfer of β-lactamase to the cytosol in HeLa cells,HeLa cells; listed as Indomethacin,does not trigger the transfer of β-lactamase to the cytosol
same,transfer of fluorescent dextran to the cytosol,[2],the staining switched to cytosolic staining
same,transfer of fluorescent dextran to the cytosol,[2]; listed as Indomethacin,"triggers the transfer of Cy3 labeled β-lactamase, dextran and Cy3 to the cytosol"
same,transfer of Cy3 alone to the cytosol,"[2]; Cy3 0.2 mg/ml for 90 minutes, listed as Indomethacin","triggers the transfer of Cy3 labeled β-lactamase, dextran and Cy3 to the cytosol"
same,transfer of Cy3-labelled β-lactamase to the cytosol,[2],induced not only the transfer of Cy3-labelled β-lactamase
same,transfer of Cy3-labelled β-lactamase to the cytosol,[2]; listed as Indomethacin,"triggers the transfer of Cy3 labeled β-lactamase, dextran and Cy3 to the cytosol"
same,"transfer of β-lactamase to the cytosol (450/535 nm ratio, CCF4 cleavage)",[1],led to a robust cytosolic transfer of beta-lactamase
same,"cross-presentation of ovalbumin (B3Z lacZ activity, CPRG)",[3],displayed enhanced capacities for cross-priming compared to the DMSO control
same,"cross-presentation of ovalbumin (B3Z lacZ activity, CPRG)",[3]; listed as Indomethacin,promotes cross-presentation of ovalbumin
same,indomethacin induced transfer of β-lactamase adsorbed to beads or expressed by E. coli,[4],same dose-dependency
same,indomethacin induced transfer of β-lactamase adsorbed to beads or expressed by E. coli,[4]; listed as Indomethacin,is also able to trigger the transfer of β-lactamase when adsorbed to beads or expressed by E. coli in BV2 macrophages-like cells in a dose dependent manner
same,indomethacin induced cytosolic transfer as a function of external β-lactamase concentration,[4],dose-dependent on the external concentration of β-lactamase
same,indomethacin induced cytosolic transfer as a function of external β-lactamase concentration,[4]; listed as Indomethacin,depends on the external concentration of β-lactamase
CC(=O)N[C@@H](CSC(=O)[C@]1([C@@H](O)C(C)C)NC(=O)[C@H](C)[C@@H]1O)C(=O)O [lactacystin],"cross-presentation of ovalbumin (B3Z lacZ activity, CPRG)",[3],do not cross-present ovalbumin
CCCCC/C=C\C/C=C\C/C=C\C/C=C\CCCC(=O)O [arachidonic acid],"transfer of β-lactamase to the cytosol (450/535 nm ratio, CCF4 cleavage)",[1],triggered cytosolic access of our model antigen β-lactamase
CCOC(=O)c1ccc(N2NC(=O)/C(=C/c3ccc([N+](=O)[O-])o3)C2=O)cc1 [Pyr41],effect on indomethacin induced transfer of β-lactamase to the cytosol,[1],decreased cytosolic antigen transfer induced by indomethacin; also recorded: restrained
C[C@@H]1C[C@H]2O[C@@H]2/C=C\C=C\C(=O)Cc2c(Cl)c(O)cc(O)c2C(=O)O1 [radicicol],effect on indomethacin induced transfer of β-lactamase to the cytosol,[1],restrained
"CCCCC[C@H](O)/C=C/[C@H]1[C@H](O)CC(=O)[C@@H]1C/C=C\CCCC(=O)O [PGE2, prostaglandin E2]",half-life,[5],less than one minute
"C/C=C/[C@H]1O[C@@](O)([C@@H](C)[C@H](O)[C@H](C)[C@H]2OC(=O)/C(OC)=C/C(C)=C/[C@@H](C)[C@@H](O)[C@@H](C)[C@@H](O)[C@H](C)C/C(C)=C/C=C/[C@@H]2OC)C[C@@H](O[C@H]2C[C@@H](O)[C@H](OC(N)=O)[C@@H](C)O2)[C@@H]1C [conB, Concanamycin B]",cytosolic transfer of β-lactamase on increased endosomal antigen stability,[1]; concanamycin B 25nM or protease inhibitors 1X with β-lactamase for 90 minutes at 37°C,neither conB nor PI incubation led to any cytosolic transfer of β-lactamase
"CCCCC[C@H](O)/C=C/[C@H]1O[C@H]2C[C@H](O2)[C@@H]1C/C=C\CCCC(=O)O [TXA2, Thromboxane A2]",half-life,[5],less than one minute
"O=C(O)CC/C=C\CC1COC(c2ccccc2Cl)OC1c1ccccc1O (stereo not drawn) [ICI192605, 4-(Z)-6-(2-o-Chlorophenyl-4-o-hydroxyphenyl-1,3-dioxan-cis-5-yl)hexenoic acid]","transfer of β-lactamase to the cytosol (450/535 nm ratio, CCF4 cleavage)",[1],led to a robust antigen transfer
"CCCCC/C=C\C/C=C\C/C=C\C/C=C\CCCC(=O)C(F)(F)F [AACOCF3, 1,1,1-trifluoro-6Z,9Z,12Z,15Z-heneicosatetraen-2-one]","transfer of β-lactamase to the cytosol (450/535 nm ratio, CCF4 cleavage)",[1],dramatically and robustly boosted transfer of the model antigen β-lactamase to the cytosol
